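Compound exposure: 48 hours, 5 concentrations, 96-well plates. At the GI50, growth is halved.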 Activity calls are given as the source filed them. Rule as the data show it: active = GI50 up to about 1.1 µM and inactive = higher.

The results in this text go back to ChEMBL document CHEMBL1201862, “PubChem BioAssay data set” (2004).

Test systems include CAKI-1; COLO 205; HL-60; HOP-62; K562; LOX IMVI; M14; MOLT-4; Malme-3M; NCI-H460; NCI-H522; PC-3; RXF 393; SF-539; SK-MEL-28; SN12C; SNB-75; TK-10; U-251; UO-31.
Common to all, as to test: NCI anticancer screen, dose series, 48 h

Turning to `COc1cc(C2=N/C(=C/c3cccs3)C(=O)O2)cc(OC)c1OC`, the GI50 in the experiment on CAKI-1, in the experiment with COLO 205, in the experiment with HL-60, with HOP-62, with K562 and with LOX IMVI was > 100 µM (inactive) throughout. The GI50 in the experiment with M14, in the experiment on MOLT-4, in the experiment with Malme-3M, in the experiment with NCI-H460, in the experiment on NCI-H522 and with PC-3 was > 100 µM (inactive) throughout. Also, the GI50 in the experiment with RXF 393, with SF-539, in the experiment with SK-MEL-28, in the experiment with SN12C, in the experiment with SNB-75 and in the experiment on TK-10 was > 100 µM (inactive) in each case. In addition, in the experiment with U-251, the GI50 was > 100 µM (inactive).

On to `CC/C=C\C=C/C(=O)N/C=C/CCC`, for which the GI50 in the experiment with CAKI-1, in the experiment on HL-60, in the experiment on HOP-62, in the experiment with K562, in the experiment on LOX IMVI and with M14 was > 100 µM (inactive) in each case. Besides, the GI50 with MOLT-4 was 22.8 µM (inactive); with Malme-3M, > 100 µM (inactive); with NCI-H460 it was > 100 µM (inactive); with NCI-H522, 17.5 µM (inactive); in the experiment on PC-3, 85.1 µM (inactive); with RXF 393, > 100 µM (inactive). The GI50 in the experiment on SF-539, in the experiment with SK-MEL-28, with SN12C, in the experiment on SNB-75, in the experiment with TK-10 and with U-251 was > 100 µM (inactive) each time. Also, the GI50 with UO-31 was > 100 µM (inactive).

As for `COc1ccc(C(=O)/C=C/c2cc(O)c(O)c(F)c2F)c(OC)c1`, the GI50 in the experiment with CAKI-1 is 25.6 µM (inactive); in the experiment with COLO 205, 15.6 µM (inactive); with HL-60, 4.22 µM (inactive); in the experiment with HOP-62, 26.5 µM (inactive); in the experiment on K562 it was 17.9 µM (inactive); in the experiment with LOX IMVI it was 13.6 µM (inactive). The GI50 in the experiment with M14 is 22.8 µM (inactive); with Malme-3M, 15.5 µM (inactive); in the experiment on NCI-H460 it was 4.45 µM (inactive); in the experiment on NCI-H522 it was 11.2 µM (inactive); in the experiment with PC-3, 12.3 µM (inactive); with RXF 393, 18.2 µM (inactive). Further, the GI50 in the experiment on SF-539 was 16.7 µM (inactive); with SK-MEL-28 it was 30 µM (inactive); in the experiment on SN12C it was 10.3 µM (inactive); in the experiment on SNB-75 it was 22.4 µM (inactive); with TK-10 it was 22.5 µM (inactive); with U-251, 11.1 µM (inactive). For the same compound, the GI50 in the experiment with UO-31 is 35.2 µM (inactive).

With `CCOC(=O)Cc1ccc(Nc2nc3ccccc3nc2C(=O)OCC)cc1`, the GI50 in the experiment with CAKI-1 is 83.6 µM (inactive); in the experiment with COLO 205, > 100 µM (inactive); in the experiment with HL-60 it was > 100 µM (inactive); in the experiment on HOP-62, 38.3 µM (inactive); in the experiment on LOX IMVI it was > 100 µM (inactive); with M14, > 100 µM (inactive). The GI50 in the experiment with MOLT-4 is > 100 µM (inactive); with Malme-3M it was 52.1 µM (inactive); in the experiment with NCI-H460, 44.6 µM (inactive); in the experiment with NCI-H522, 89.9 µM (inactive); with PC-3, 62.5 µM (inactive); in the experiment on RXF 393, 24 µM (inactive). The GI50 is 37.1 µM (inactive) in the experiment with SF-539; > 100 µM (inactive) in the experiment with SK-MEL-28; > 100 µM (inactive) in the experiment on SN12C; 17.9 µM (inactive) in the experiment with SNB-75; 37.1 µM (inactive) in the experiment on TK-10; 51.3 µM (inactive) in the experiment with U-251. For the same compound, the GI50 with UO-31 is 14.5 µM (inactive).

As for `COc1ccccc1NC(=O)CC(=O)NN`, the GI50 in the experiment with CAKI-1, with COLO 205, in the experiment on HL-60, in the experiment on HOP-62, in the experiment with K562 and in the experiment on LOX IMVI was > 100 µM (inactive) each time. The GI50 in the experiment with MOLT-4, in the experiment with Malme-3M, in the experiment with NCI-H460, in the experiment with NCI-H522, with PC-3 and in the experiment on RXF 393 was > 100 µM (inactive) each time. The GI50 in the experiment with SF-539, with SK-MEL-28, with SN12C, with SNB-75, in the experiment with TK-10 and in the experiment on U-251 was > 100 µM (inactive) in each case. Further, the GI50 in the experiment on UO-31 was > 100 µM (inactive).

Turning to `COC(=O)C(CCc1ccccc1I)C1=CCC2(CC1)OCCO2` (centres undefined), the GI50 is 95.3 µM (inactive) with CAKI-1; 57.9 µM (inactive) in the experiment with COLO 205; 0.0435 µM (active) with HL-60; 70.1 µM (inactive) in the experiment on HOP-62; 66.4 µM (inactive) in the experiment on K562; 25.8 µM (inactive) with LOX IMVI. Further, the GI50 is 28.2 µM (inactive) with M14; 49.8 µM (inactive) with MOLT-4; 33.6 µM (inactive) in the experiment with Malme-3M; 65.8 µM (inactive) with NCI-H460; 18.7 µM (inactive) with NCI-H522; 27 µM (inactive) in the experiment on PC-3. Moreover, the GI50 in the experiment on RXF 393 was 17.9 µM (inactive); in the experiment on SF-539 it was > 100 µM (inactive); in the experiment on SK-MEL-28, 89.9 µM (inactive); with SNB-75, 34 µM (inactive); in the experiment with TK-10 it was 38.3 µM (inactive); with U-251, 61.8 µM (inactive). Besides, the GI50 in the experiment with UO-31 is 23.1 µM (inactive).

Take `COCCN(CCNC(=O)c1cccc2c(N)c3cccc(C)c3nc12)CCOC`: the GI50 was 0.528 µM (active) with CAKI-1; 0.436 µM (active) in the experiment with COLO 205; 0.794 µM (active) in the experiment on HL-60; 0.948 µM (active) in the experiment with HOP-62; 0.449 µM (active) in the experiment with K562; 1.04 µM (active) with LOX IMVI. Moreover, the GI50 in the experiment on M14 is 1.37 µM (inactive); in the experiment on MOLT-4, 0.144 µM (active); with Malme-3M, 0.695 µM (active); in the experiment with NCI-H460 it was 0.302 µM (active); with NCI-H522, 0.165 µM (active); in the experiment with PC-3, 1 µM (active). In addition, the GI50 was 1.93 µM (inactive) in the experiment on RXF 393; 0.931 µM (active) in the experiment with SF-539; 7.35 µM (inactive) with SK-MEL-28; 0.582 µM (active) with SN12C; 1.17 µM (inactive) in the experiment with SNB-75; 1.49 µM (inactive) in the experiment with TK-10. Further, in the experiment on U-251, the GI50 is 3.47 µM (inactive).

With `COc1cc(N(CCC#N)CCC#N)ccc1/C=N\NC(=O)c1ccc(C)cc1`, the GI50 in the experiment with CAKI-1, in the experiment on COLO 205, in the experiment on HL-60, with HOP-62, with K562 and in the experiment with LOX IMVI was > 100 µM (inactive) in each case. The GI50 is > 100 µM (inactive) in the experiment on M14; > 100 µM (inactive) with MOLT-4; > 100 µM (inactive) in the experiment on Malme-3M; > 100 µM (inactive) in the experiment on NCI-H460; > 100 µM (inactive) in the experiment with NCI-H522; 17.3 µM (inactive) in the experiment with PC-3. The GI50 with RXF 393, in the experiment on SF-539, in the experiment with SK-MEL-28, with SN12C, in the experiment with SNB-75 and with TK-10 was > 100 µM (inactive) each time. In the experiment with U-251, the GI50 was 16.4 µM (inactive).

On to `CSC(SC)=C(C#N)C(=O)Nc1cccc(Cl)c1`, for which the GI50 in the experiment with CAKI-1 is 45.9 µM (inactive); in the experiment on COLO 205, > 100 µM (inactive); with HL-60, 15.4 µM (inactive); in the experiment with HOP-62 it was 67.9 µM (inactive); in the experiment with K562 it was 32.4 µM (inactive); in the experiment on LOX IMVI, 93.3 µM (inactive). Further, the GI50 in the experiment with M14 is 47.8 µM (inactive); with MOLT-4 it was 20.5 µM (inactive); in the experiment on Malme-3M it was 79.4 µM (inactive); in the experiment with NCI-H460 it was 59.8 µM (inactive); in the experiment with NCI-H522 it was 17.5 µM (inactive); with PC-3, 50.4 µM (inactive). In addition, the GI50 with RXF 393 was > 100 µM (inactive); in the experiment with SF-539, 57.5 µM (inactive); in the experiment on SK-MEL-28, 64.7 µM (inactive); in the experiment on SN12C it was > 100 µM (inactive); with SNB-75, > 100 µM (inactive); in the experiment on TK-10, 59.3 µM (inactive). Also, the GI50 in the experiment on U-251 was 76.7 µM (inactive).

For the compound `CCOC(=O)NC1CN2CCC1CC2` (centres undefined), the GI50 with CAKI-1, with COLO 205, with HL-60, in the experiment on HOP-62, with K562 and in the experiment on LOX IMVI was > 100 µM (inactive) throughout. Further, the GI50 with M14, with MOLT-4, in the experiment with Malme-3M, in the experiment with NCI-H460, in the experiment with NCI-H522 and with PC-3 was > 100 µM (inactive) each time. The GI50 in the experiment on RXF 393, in the experiment with SF-539, with SK-MEL-28, in the experiment on SN12C, in the experiment with SNB-75 and in the experiment on U-251 was > 100 µM (inactive) each time. Moreover, the GI50 with UO-31 was > 100 µM (inactive).

Consider `CC(C)(C)c1cc(C=C(C#N)C#N)cc(C(C)(C)C)c1O` [TYRPHOSTIN A9], for which the GI50 with CAKI-1 was 0.738 µM (active); in the experiment with HL-60, 0.329 µM (active); in the experiment on HOP-62, 0.405 µM (active); in the experiment on K562, 0.305 µM (active); in the experiment on LOX IMVI, 0.641 µM (active); in the experiment on M14 it was 0.944 µM (active). The GI50 is 0.374 µM (active) with MOLT-4; 0.439 µM (active) in the experiment on Malme-3M; 0.171 µM (active) in the experiment with NCI-H460; 0.126 µM (active) in the experiment on NCI-H522; 0.256 µM (active) with PC-3; 2.55 µM (inactive) in the experiment with RXF 393. Also, the GI50 with SF-539 was 0.259 µM (active); with SK-MEL-28, 3.2 µM (inactive); in the experiment with SN12C, 0.191 µM (active); in the experiment on SNB-75, 0.857 µM (active); in the experiment with TK-10, 2.05 µM (inactive); in the experiment with U-251, 0.692 µM (active). In addition, in the experiment with UO-31, the GI50 was 0.315 µM (active).
